# Patent publication US7094801B2, “Chalcone derivatives and their use to treat diseases” (Atherogenics, Inc., priority 2001, dated 2006)
# Where a name gives a salt, the structure may show the parent alone.
# Experiments:
# [1] = system: VCAM-1; assay: In Vitro VCAM-1 Assay (TNF-α stimulated HAEC or HPAEC, cell ELISA); type: cell-based, human; conditions: TNF-α (1 ng/ml) stimulated HAEC or HPAEC, approximately 16 hours
# Procedure: Cell Culture and compound dosing: Cultured primary human aortic (HAEC) or pulmonary (HPAEC) endothelial cells were obtained from Clonetics, Inc., and were used below passage 9. Cells were seeded in 96 well plates such that they would reach 90–95% confluency by the following day. On the following day the cells were stimulated with TNF-α (1 ng/ml) in the presence or absence of compounds dissolved in DMSO such that the final concentration of DMSO is 0.25% or less. To establish a dose curve for each compound, four concentrations in 2- to 5-fold increments were used. Cells were exposed to TNF-α and compounds for approximately 16 hours. The next day the cells were examined under microscope to score for visual signs of toxicity or cell stress.
# Following 16 hr exposure to TNF-α and compound the media was discarded and the cells were washed once with Hanks Balanced Salt Solution (HBSS)/Phosphate buffered saline (PBS) (1:1). Primary antibodies against VCAM-1 (0.25 μg/ml in HBSS/PBS+5% FBS) were added and incubated for 30–60 minutes at 37° C. Cells were washed with HBSS/PBS three times, and secondary antibody Horse Radish Peroxidase (HRP)-conjugated goat anti-mouse IgG (1:500 in HBSS/PBS+5% FBS) were added and incubated for 30 minutes at 37° C. Cells were washed with HBSS/PBS four time and TMB substrate were added and incubated at room temperature in the dark until there was adequate development of blue color. The length of time of incubation was typically 5–15 minutes. 2N sulfuric acid was added to stop the color development and the data was collected by reading the absorbance on a BioRad ELISA plate reader at OD 450 nm. The results are expressed as IC50 values (the concentration (micromolar) of compound required to inhibit 50% of the maximal response of the control sample stimulated by TNF-α only).
SMILES,melting point,"IC50 ([1]; Homo sapiens, 16 h) [µM]",IC50 [1] [µM],IC50 ([1]; sodium salt) [µM]
"COc1cc(/C=C/C(=O)c2ccc3c(c2)OC(CO)(CO)O3)cc(-c2cccs2)c1OC [Example 1, 1-(2,2-Bis-hydroxymethyl-benzo[1,3]dioxol-5-yl)-3E-(3,4-dimethoxy-5-thiophen-2-yl-phenyl)-propenone]",74 to 80 °C,< 1,,
"O=C(/C=C/c1ccc(-c2cccs2)cc1)c1ccc2c(c1)OC(CO)(CO)O2 [Example 2, 1-(2,2-Bis-hydroxymethyl-benzo[1,3]dioxol-5-yl)-3E-(4-thiophen-2-yl-phenyl)-propenone]",166 to 168 °C,< 5,,
"O=C(O)c1ccc(C(=O)/C=C/c2ccc(-c3cncnc3)cc2)cc1 [Example 4, 4-[3E-(4-Pyrimidin-5-yl-phenyl)-acryloyl]-benzoic acid]",> 260 °C,< 10,,
"O=C(O)c1ccc(C(=O)/C=C/c2ccc(-c3nccs3)cc2)cc1 [Example 5, 4-[3E-(4-Thiazol-2-yl-phenyl)acryloyl]-benzoic acid]",232 to 235 °C,< 1,,
"COc1cc(OC)c(-c2cc3ccccc3s2)cc1/C=C/C(=O)c1ccccc1C(=O)O [Example 7, 2-[3E-(5-Benzo[b]thiophen-2-yl-2,4-dimethoxy-phenyl)-acryloyl]-benzoic acid]",220 to 223 °C (dec.),,< 1,
"COc1cc(/C=C/C(=O)c2ccc(C(=O)O)cc2)cc(-c2cccs2)c1OC [Example 8, 4-[3E-(3,4-Dimethoxy-5-thiophen-2-yl-phenyl)-acryloyl]-benzoic acid]",231 °C,< 1,,
"COc1cc(OC)c(-c2cc3ccccc3s2)cc1/C=C/C(=O)c1ccccc1C(=O)[O-].[Na+] [Example 9, 2-[3E-(5-Benzo[b]thiophen-2-yl-2,4-dimethoxy-phenyl)-acryloyl]-benzoic acid, sodium salt]",214 to 217 °C (dec.),,,< 5
"O=C(O)c1ccc(C(=O)/C=C/c2ccc(-c3cccs3)cc2)cc1 [Example 10, 4-[3E-(4-Thiophen-2-yl-phenyl)-acryloyl]-benzoic acid]",> 260 °C,< 5,,
"COc1cc(/C=C/C(=O)c2ccc(N)cc2)cc(-c2cccs2)c1OC [Example 11, 1-(4-Amino-phenyl)-3E-(3,4-dimethoxy-5-thiophen-2-yl-phenyl)-propenone]",67 to 71 °C,< 5,,
"Nc1ccc(C(=O)/C=C/c2ccc(-c3cccs3)cc2)cc1 [Example 12, 1-(4-Amino-phenyl)-3E-(4-thiophen-2-yl-phenyl)-propenone]",185 to 187 °C,< 5,,
"COc1cc(OC)c(-c2cc3ccccc3s2)cc1/C=C/C(=O)c1ccc(N)cc1 [Example 13, 1-(4-Amino-phenyl)-3E-(5-benzo[b]thiophen-2-yl-2,4-dimethoxy-phenyl)-propenone]",98 to 104 °C,< 5,,
"COc1cc(/C=C/C(=O)c2ccc(NS(C)(=O)=O)cc2)cc(-c2cccs2)c1OC [Example 14, N-{4-[3E-(3,4-Dimethoxy-5-thiophen-2-yl-phenyl)-acryloyl]-phenyl}-methanesulfonamide]",71 to 75 °C,< 1,,
"CCOC(=O)CNC(=O)Nc1ccc(C(=O)/C=C/c2ccc(-c3cccs3)cc2)cc1 [Example 15, (3-{4-[3E-(4-Thiophen-2-yl-phenyl)-acryloyl]-phenyl}-ureido)-acetic acid ethyl ester]",209 to 212 °C,> 10,,
"CCOC(=O)CNC(=O)N(C(=O)NCC(=O)OCC)c1ccc(C(=O)/C=C/c2cc(OC)c(OC)c(-c3cccs3)c2)cc1 [Example 16, (3-[Ethoxycarbonylmethylaminocarbonyl]-3-{4-[3E-(3,4-dimethoxy-5-thiophen-2-yl-phenyl)-acryloyl]-phenyl}-ureido)-acetic acid ethyl ester]",83 to 86 °C,< 5,,
"O=C(O)c1ccc(/C=C/C(=O)c2ccc(-c3cccs3)cc2)cc1 [Example 18, 4-[3-{4-(thien-2-yl)-phenyl}-3-oxo-E-propenyl]-benzoic acid]",260 to 265 °C,< 5,,
"COc1cc(-c2cccs2)ccc1C(=O)/C=C/c1ccc(C(=O)O)cc1 [Example 19, 4-[3-(2-Methoxy-4-thiophen-2-yl-phenyl)-3-oxo-E-propenyl]-benzoic acid]",193 to 195 °C,< 1,,
"O=C(O)c1ccc(C(=O)/C=C/c2ccc(N3CCCC3)c(-c3cccs3)c2)cc1 [Example 20, 4-[3E-(4-Pyrrolidin-1-yl-3-thiophen-2-yl-phenyl)-acryloyl]-benzoic acid]",212 to 214 °C (dec.),> 10,,
"O=C(O)c1ccc(C(=O)/C=C/c2ccc(F)c(-c3cccs3)c2)cc1 [Example 21, 4-[3E-{4-Fluoro-3-(thiophen-2-yl)-phenyl}-acryloyl]-benzoic acid]",242 to 244 °C,< 5,,
"O=C(/C=C/c1ccc(-c2cccs2)cc1)c1ccc(S)cc1 [Example 22, 1-(4-Mercapto-phenyl)-3E-(4-thiophen-2-yl-phenyl)-propenone]",> 110 °C (dec.),> 10,,
"CSc1ccc(C(=O)/C=C/c2ccc(-c3cccs3)cc2)cc1 [Example 24, 1-(4-Methylthiophenyl)-3E-(4-thiophen-2-yl-phenyl)-propenone]",138 to 140 °C,> 10,,
"NS(=O)(=O)c1ccc(C(=O)/C=C/c2ccc(-c3cccs3)cc2)cc1 [Example 26, 4-[3E-(4-Thiophen-2-yl-phenyl)-acryloyl]-benzenesulfonamide]",> 245 °C,> 10,,
"COc1cc(/C=C/C(=O)c2ccc3[nH]ccc3c2)cc(-c2cccs2)c1OC [Example 27, 3E-(3,4-Dimethoxy-5-thiophen-2-yl-phenyl)-1-(1H-indol-5-yl)-propenone]",184.5 to 186 °C,< 5,,
"O=C(O)c1ccc(C(=O)/C=C/c2ccc(-c3cccs3)cc2F)cc1 [Example 30, 4-[3E-(2-Fluoro-4-thiophen-2-yl-phenyl)-acryloyl]-benzoic acid]",> 260 °C,< 1,,
"COc1cc(OC)c(-c2cncnc2)cc1/C=C/C(=O)c1ccc(C(=O)O)cc1 [Example 31, 4-[3E-(2,4-Dimethoxy-5-pyrimidin-5-yl-phenyl)-acryloyl]-benzoic acid]",> 260 °C,> 10,,
"COc1cc(OCC2CC2)c(/C=C/C(=O)c2ccc(C(=O)O)cc2)cc1-c1cccs1 [Example 32, 4-[3E-(2-Cyclopropylmethoxy-4-methoxy-5-thiophen-2-yl-phenyl)-acryloyl]-benzoic acid]",187 to 191 °C,< 5,,
"CCOC(=O)C1(C(=O)OCC)Oc2ccc(C(=O)/C=C/c3cc(OC)c(OC)c(-c4cccs4)c3)cc2O1 [Example 103, 5-[3E-(3,4-Dimethoxy-5-thiophen-2-yl-phenyl)-acryloyl]-benzo[1,3]dioxole-2,2-dicarboxylic acid, diethyl ester]",,> 10,,
"COc1cc(OC)c(-c2cc3ccccc3s2)cc1/C=C/C(=O)c1ccc(C(=O)O)cc1 [Example 120, 4-[3E-(5-Benzo[b]thien-2-yl-2,4-dimethoxyphenyl)-acryloyl]-benzoic acid, N-methyl-D-glucamine salt]",,< 1,,
